Data on two molecules can be found in publication PMC10361207, “Cannabinoid and Opioid Receptor Affinity and Modulation of Cancer-Related Signaling Pathways of Machaeriols and Machaeridiols from Machaerium Pers” (Molecules, 2023).

Each structure is given as a SMILES string. Where two headings read alike, the source gives them in different places.

In one experiment the test system is AP-1. As to the kind of experiment: Luciferase reporter assay, AP-1, HeLa. To be noted: Homo sapiens; for IC50: read-out: IC50, Ap-1 (PMA). Format: cell-based, human. As to the method:
(§1) Hela cells (or T98G cells) from ATCC were plated in white opaque 384-well plates at a density of 4300 cells/well in 30 µL of growth medium (DMEM with 10% FBS and 1% Pen/Strep). The next day, the medium was aspirated and replaced with DMEM containing 1% FBS. The cells were transfected with respective plasmids using X-tremeGENE HP DNA transfection reagent (Roche). After 24 h of transfection, the test agents were added to the transfected cells, followed 30 min later by an inducing agent: interleukin 6 (IL-6) for Stat3, TGF-β for Smad, m-wnt3a for Wnt and PMA for AP-1, NF-κB, E2F, Myc, ETS, Notch and Hedgehog. No inducer was added for FoXO and pTK. After 4 h or 6 h of induction, the cells were lysed via the addition of the One-Glo luciferase assay system (Promega; Madison, WI). The light output was detected in a GloMax®-Multi+ Detection System with Instinct® Software (Promega E 8051). This luciferase assay determines if the test agent is able to inhibit the activation of cancer-related signaling pathways. In the case of FoxO, the enhanced luciferase activity via the test agent was assessed.
A general note: In a reporter assay the amount or activity of a reporter protein is the signal.

A further experiment concerns E2F. As to the kind of experiment: Luciferase reporter assay, E2F, HeLa. In kind it is cell-based, human. Conditions: Homo sapiens, HeLa; for IC50: read-out: IC50, E2F (PMA). As to the method:
as §1

The subject of experiment [1] is minimal thymidine kinase promoter (pTK). As to the kind of experiment: Luciferase control vector pTK, HeLa. To be noted: HeLa cells; up to 50 µM; no inducer. Format: cell-based, human. As to the method: as §1
The next experiment concerns the target T1, δ opioid receptor (Homo sapiens, UniProt P41143).
T1 construct: host or cells: HEK293, stably transfected; membranes
As to the kind of experiment: Competitive radioligand binding assay, δ opioid. Conditions: for inhibition at 10 µM: [3H]-enkephalin (DPDPE), read-out: Percent displacement, Δ. As to the method:
(§2) HEK293 cells stably transfected with δ, κ and μ opioid subtypes were a generous gift from Roth Laboratories (University of North Carolina at Chapel Hill, N.C., USA). CB and opioid cells were maintained as previously described.
(§3) Membranes were purified by first washing the cells with cold PBS and scraping the cells into cold 50 mM Tris-HCl, pH 7.4 buffer, which was centrifuged at 5200× g for 10 min at 4 °C; next, the supernatant was discarded, and the pellet was washed with more Tris-HCl buffer, homogenized via a Sonic Dismembrator (Fisher Scientific, Pittsburgh, PA, USA) and then centrifuged at 24,000× g for 40 min at 4 °C. Finally, the pellet was re-suspended in cold 50 mM Tris-HCl buffer, aliquoted into 2 mL vials and stored at −80 °C. The total membrane protein concentration was measured using a Pierce BCA Protein Assay Kit (Thermo Scientific, Rockford, IL, USA) as per the manufacturer’s protocol.
(§4) Cannabinoid and opioid competitive radioligand binding assays were performed as previously described. Saturation experiments were performed for all the receptors to determine the receptor concentration and radioligand dissociation constant (Kd) for the membrane. Percent displacements were evaluated for all the cannabinoid and opioid subtypes with a triplicate of a fixed concentration (10 µg/mL for extracts and fractions and 10 μM for purified compounds). […] Control/test compounds were dissolved in DMSO at 10 μg/mL for extracts and fractions and 10 μM for purified compounds. […] The percent displacement was calculated to represent the ability of the samples to displace the radioligand binding for a given cannabinoid or opioid receptor subtype.
(§5) The percent displacement was calculated as follows: 100−binding of compound−nonspecific binding/specific binding×100
(§6) The competitive binding assays were performed using 12 serial dilutions of each compound ranging from 0.002 to 300 μM (control compounds were serially diluted from 10 μM to 0.06 nM). The cannabinoid assays were incubated for 90 min at 37 °C with gentle agitation. The opioid assays were incubated for 60 min at room temperature. Bound radioligands were collected on GF/C (cannabinoid) or GF/B plates (opioid) and washed 10 times with ice-cold 50 mM Tris-HCl (pH 7.4)/0.1% BSA (cannabinoid) or ice-cold 50 mM Tris-HCl (pH 7.4) (opioid). Radiodetection was measured with 50 µL (cannabinoid) or 25 µL (opioid) of MicroScint^TM-20 on a TopCount NXT HTS Microplate Scintillation Counter (PerkinElmer, Waltham, MA, USA). The IC50 and Ki values were calculated via a non-linear curve fit model using GraphPad Prism 5.0 software (GraphPad Software, Inc., San Diego, CA, USA). Each compound was tested in triplicate unless stated otherwise.

For another experiment, the target named is T2, CB1 receptor (Homo sapiens, UniProt P21554).
T2 construct: expressed in transfected cells; host or cells: HEK293 (ATCC), stably transfected; membranes
As to the kind of experiment: Competitive radioligand binding assay, CB1. Conditions: 10 μM; [3H]-CP55,940. Here is the method: as §2, §3, §4, §5, §6

The subject of another experiment is Notch. As to the kind of experiment: Luciferase reporter assay, Notch, HeLa. In kind it is cell-based. Conditions: Homo sapiens; for IC50: HeLa cells, inducer PMA, dash: not inhibited by more than 40% at 50 µmol/L. Here is the method: as §1
The next experiment deals with Wnt. As to the kind of experiment: Luciferase reporter assay, Wnt, HeLa. In kind it is cell-based. Conditions: Homo sapiens; for IC50: HeLa cells, inducer m-wnt3a, dash: not inhibited by more than 40% at 50 µmol/L. Here is the method:
as §1

Another experiment deals with Stat3. As to the kind of experiment: Luciferase reporter assay, Stat3, HeLa. In kind it is cell-based, human. Here is the method:
as §1

In a further experiment the test system is NF-κB. As to the kind of experiment: Luciferase reporter assay, NF-κB, HeLa. To be noted: Homo sapiens; for IC50: HeLa cells, inducer PMA, dash: not inhibited by more than 40% at 50 µmol/L. In kind it is cell-based. Here is the method:
as §1

Another experiment has as its target Smad2/3. As to the kind of experiment: Luciferase reporter assay, Smad2/3, HeLa. Format: cell-based, human. Here is the method:
as §1

[2] abbreviates: AP1, read-out: Additive effect (in % inhibition): percentage of luciferase induction, AP-1 (PMA).
The mark [3] stands for this setting: read-out: Additive effect (in % inhibition): percentage of luciferase induction, E2f (PMA).
[4] abbreviates: Homo sapiens, HeLa cells, inducer IL6, dash: not inhibited by more than 40% at 50 µmol/L.
[5] abbreviates: Homo sapiens, HeLa cells, inducer TGF-beta, dash: not inhibited by more than 40% at 50 µmol/L.

T1 sequence (P41143 whole entry): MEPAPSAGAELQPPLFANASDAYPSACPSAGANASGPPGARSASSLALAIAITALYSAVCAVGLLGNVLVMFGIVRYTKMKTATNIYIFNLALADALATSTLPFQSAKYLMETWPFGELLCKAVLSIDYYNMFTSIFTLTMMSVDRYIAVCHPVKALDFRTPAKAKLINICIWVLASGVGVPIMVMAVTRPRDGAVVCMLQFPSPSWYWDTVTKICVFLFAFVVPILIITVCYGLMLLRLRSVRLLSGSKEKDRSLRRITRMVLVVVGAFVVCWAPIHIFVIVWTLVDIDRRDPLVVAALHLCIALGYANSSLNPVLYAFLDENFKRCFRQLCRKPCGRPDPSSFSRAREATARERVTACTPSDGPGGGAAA
T2 sequence (P21554 whole entry): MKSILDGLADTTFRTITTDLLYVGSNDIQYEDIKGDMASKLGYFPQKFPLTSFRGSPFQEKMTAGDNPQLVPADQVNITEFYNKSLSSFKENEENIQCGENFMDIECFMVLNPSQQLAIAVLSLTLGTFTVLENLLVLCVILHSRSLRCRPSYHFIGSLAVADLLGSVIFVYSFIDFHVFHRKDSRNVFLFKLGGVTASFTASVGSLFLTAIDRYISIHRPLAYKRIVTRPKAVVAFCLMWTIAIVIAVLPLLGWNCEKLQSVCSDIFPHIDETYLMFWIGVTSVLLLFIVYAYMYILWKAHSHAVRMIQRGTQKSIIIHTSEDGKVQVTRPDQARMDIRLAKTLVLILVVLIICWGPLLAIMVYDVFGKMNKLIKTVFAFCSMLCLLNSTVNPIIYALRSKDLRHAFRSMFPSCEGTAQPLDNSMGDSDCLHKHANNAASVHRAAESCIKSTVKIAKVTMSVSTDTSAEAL

The term IC50 denotes the concentration that inhibits the measured activity by half. In the case of `C[C@H]1CC[C@H]2[C@H](C1)c1c(O)cc(/C=C/c3ccccc3O)cc1OC2(C)C` [compound 3, machaeriol C], the inhibition at 10 µM amounted to 61% with AP-1 (setting [2]); 50% in the experiment on E2F (setting [3]); 4.6% on δ opioid receptor; 115% with Notch (HeLa, 3 alone at 10 µM, compared to pTK as control, read-out: Additive effect (in % inhibition): percentage of luciferase induction, Notch- (PMA)); 81% with Wnt (HeLa, 3 alone at 10 µM, compared to pTK as control, read-out: Additive effect (in % inhibition): percentage of luciferase induction, Wnt (m-wnt3a)); 92% with Stat3 (Homo sapiens, HeLa, 3 alone at 10 µM, compared to pTK as control, read-out: Additive effect (in % inhibition): percentage of luciferase induction, Stat3 (IL-6)). The inhibition at 10 µM in the experiment with NF-κB (HeLa, 3 alone at 10 µM, compared to pTK as control, read-out: Additive effect (in % inhibition): percentage of luciferase induction, NF-κB (PMA)) is 70%; with Smad2/3 (Homo sapiens, HeLa, 3 alone at 10 µM, compared to pTK as control, read-out: Additive effect (in % inhibition): percentage of luciferase induction, Smad2/3 (TGF-β)) it was 93%. Moreover, the IC50 in the experiment with AP-1 was 12 µM; in the experiment with E2F, 14 µM; in the experiment with Notch, above 50 µM; in the experiment with Wnt it was 22 µM; in the experiment with Stat3 (setting [4]), 38 µM; in the experiment with NF-κB it was 11 µM. It took 37 µM to reach half-maximal inhibition in the experiment on Smad2/3 (setting [5]) (IC50). In addition, the “Inhibition of luciferase expression driven by pTK” value in [1] was “no inhibition”. In addition, the Ki on δ opioid receptor (Δ Ki ± SEM, NA = not active) turned out to be 17.1 ± 2.61 µM. For the same molecule, on CB1 receptor, the “Percent displacement, CB1” value is listed as 43.6%. Moreover, the “IC50, Stat3 (IL6)” value at Stat3 (HeLa cells, inducer IL6, dash: not inhibited by more than 40% at 50 µmol/L) was “lacked activity”. In addition, the “IC50, Smad2/3 (TGF-beta)” value against Smad2/3 (HeLa cells, inducer TGF-beta, dash: not inhibited by more than 40% at 50 µmol/L) is “lacked activity”.

As to `C=C(C)[C@H]1CC[C@H](C)C[C@@H]1c1c(O)cc(/C=C/c2ccccc2O)cc1O` [compound 6, machaeridiol B], the inhibition at 2 µM stood at 70% in the experiment on AP-1 (setting [2]); 80% with E2F (setting [3]); 103% with Notch (HeLa, 6 alone at 2 µM, compared to pTK as control, read-out: Additive effect (in % inhibition): percentage of luciferase induction, Notch- (PMA)); 113% in the experiment on Wnt (HeLa, 6 alone at 2 µM, compared to pTK as control, read-out: Additive effect (in % inhibition): percentage of luciferase induction, Wnt (m-wnt3a)); 82% with Stat3 (Homo sapiens, HeLa, 6 alone at 2 µM, compared to pTK as control, read-out: Additive effect (in % inhibition): percentage of luciferase induction, Stat3 (IL-6)); 76% in the experiment with NF-κB (HeLa, 6 alone at 2 µM, compared to pTK as control, read-out: Additive effect (in % inhibition): percentage of luciferase induction, NF-κB (PMA)). For the same molecule, the inhibition at 2 µM in the experiment on Smad2/3 (Homo sapiens, HeLa, 6 alone at 2 µM, compared to pTK as control, read-out: Additive effect (in % inhibition): percentage of luciferase induction, Smad2/3 (TGF-β)) amounted to 109%. Further, the IC50 was determined as 5.9 µM with AP-1; 5.7 µM in the experiment with E2F; 5.3 µM with Notch; 4.2 µM in the experiment with Wnt; 4.7 µM with Stat3 (setting [4]); 0.5 µM with NF-κB. The IC50 in the experiment on Smad2/3 (setting [5]) stood at 1.2 µM. For the same molecule, the “Inhibition of luciferase expression driven by pTK” value in [1] was “no inhibition”. Moreover, on δ opioid receptor, the inhibition at 10 µM was determined as 50.2%. Moreover, the Ki at δ opioid receptor (NA = not active, read-out: Δ Ki ± SEM) was 6.54 ± 0.77 µM; at δ opioid receptor (read-out: Δ pKi (converted)) it was 6.46 µM. The “Percent displacement, CB1” value on CB1 receptor came to 45.2%.
